According to US10323020B2, “Substituted piperidinyl tetrahydroquinolines” (Bayer Pharma Aktiengesellschaft, priority 2013, dated 2019):

Assays:
Wistar rat = experiment: Measurement of blood flow and blood pressure in rats (femoral flow), Wistar rat; type: in vivo
Method: (§1) Wistar rats (Hsd Cpb:Wu) of a weight of 250-350 g or ZDF rats (ZDF/Crl-Lepr fa/fa) of a weight of 330-520 g were anesthetized using 2.5% isoflurane in an oxygen/laughing gas mixture (40:60). To determine the blood flow in the carotid artery and the femoral artery, the anesthetized rat was brought into a supine position, and the left carotid artery and the right femoral artery are then carefully exposed. Blood flow was measured by placing flow probes (Transonic Flowprobe) at the vessels. By introducing a PE50 artery catheter into the left femoral artery, blood pressure and heart rate were determined (Transducer Ref. 5203660: from Braun CH). The substances were administered as a bole injection or a continuous infusion via a venous catheter in the left femoral vein.
(§2) Following the preparation of the animals, there was a 5 min baseline interval. Infusion of the AR alpha2C receptor antagonist was then started. In the steady state (32 min after the start of the experiment), the femoral flow was determined in relation (% difference) to the initial flow.
(§3) At the same time, no changes in blood pressure and heart rate were measured. Placebo: 10% ethanol/40% PEG400/50% NaCl.

[1] = biological target: recombinant human α2C receptor (Homo sapiens (Human), UniProt P18825); experiment: Antagonism against the adrenoreceptor α2C (luminescence, noradrenaline-stimulated CHO cells); type: cell-based; settings: noradrenaline 20 nM; CHO cell line with Gαqi3 and mtOb
Method: Antagonism against the adrenoreceptor α1A was tested using a recombinant human α1A receptor CHO cell line which additionally also recombinantly expresses mtAeq (mitochondrial aequorin). Antagonism against the adrenoreceptor α2A was tested using a recombinant human α2A-Gα16 receptor fusion protein CHO cell line (PerkinElmer Life Sciences) which additionally also recombinantly expresses mtAeq. Antagonism against the adrenoreceptor α2B was tested using a recombinant human α2B receptor CHO cell line (PerkinElmer Life Sciences) which additionally also recombinantly expresses mtAeq. Antagonism against the adrenoreceptor α2C was tested using a recombinant human α2C receptor CHO cell line which additionally also recombinantly expresses a chimaric G protein (Gαqi3) and mtOb (mitochondrial obelin).
The cells were cultivated at 37° C. and 5% CO2 in Dulbecco's modified Eagle's Medium/NUT mix F12 with L-glutamine which additionally contains 10% (v/v) inactivated foetal calf serum, 1 mM sodium pyruvate, 0.9 mM sodium bicarbonate, 50 U/ml penicillin, 50 μg/ml streptomycin, 2.5 μg/ml amphotericin B and 1 mg/ml Geneticin. The cells were passaged with enzyme-free Hank's-based cell dissociation buffer. All cell culture reagents used were from Invitrogen (Carlsbad, USA).
Luminescence measurements were carried out on white 384-well microtitre plates. 2000 cells/well were plated in a volume of 25 μl and cultivated for one day at 30° C. and 5% CO2 in cell culture medium with coelenterazine (α2A and α2B: 5 μg/ml; α1a/c and α2C: 2.5 μg/ml). Serial dilutions of the test substances (10 μl) were added to the cells. After 5 minutes, noradrenaline was added to the cells (35 μl; final concentrations: 20 nM (α1a/c and α2C) or 200 nM (α2A and α2B)), and the emitted light was measured for 50 seconds using a CCD (charge-coupled device) camera (Hamamatsu Corporation, Shizuoka, Japan) in a light-tight box. The test substances were tested up to a maximum concentration of 10 μM. The IC50 values were calculated from the appropriate dose-response curves.

[2] = test system: diabetic (ZDFfa/fa) and healthy rats (Wistar); experiment: Assay of perfusion-enhancing substances (microcirculation), laser doppler at the paw; type: in vivo, rat
Text: In diabetic (ZDFfa/fa) and healthy rats (Wistar), a laser doppler probe was fastened under anaesthesia conditions (isoflurane anaesthesia) at the sole of the paw for measuring cutaneous microcirculation. The test animals were once treated orally with the test substances. During the experiment, microperfusion and temperature of the lower extremities were documented continuously. Here, a temperature-sensitive laser doppler probe (Periflux, O2C) was fastened with adhesive to the paws of the animals, allowing the measurement of microperfusion and skin temperature. The microcirculation measurement values were measured on both paws 30 min after oral administration of the test substance. […] Also stated is the MED for the significant increase of skin temperature (ttest).
Microcirculation data for adrenoreceptor α2C receptor antagonist of the compound of Example 8 and for the comparative substance ORM12741, an AR α2c receptor antagonist from Orion, are shown in Table 3: […]

[3] = test system: conscious female Wistar rats; experiment: Radiotelemetric measurement of blood pressure and heart rate of conscious rats; type: in vivo, rat
Text: A commercially available telemetry system from Data Sciences International DSI, USA, was employed for the measurements on conscious rats described below. The system consists of 3 main components: (1) implantable transmitters (Physiotel® telemetry transmitter), (2) receivers (Physiotel® receiver), which are linked via a multiplexer (DSI Data Exchange Matrix) to a (3) data acquisition computer. The telemetry system makes it possible to continuously record blood pressure, heart rate and body motion of conscious animals in their usual habitat.
The studies were conducted on adult female Wistar rats with a body weight of >200 g. After transmitter implantation, the experimental animals were housed singly in type III Makrolon® cages. They had free access to standard feed and water. The day/night rhythm in the test laboratory was set by changing the illumination of the room.
The telemetry transmitters used (PA-C40, DSI) were surgically implanted under aseptic conditions in the experimental animals at least 14 days before the first experimental use.
For the implantation, the fasted animals were anaesthetized with isoflurane (IsoFlo®, Abbott, initiation 5%, maintenance 2%) and shaved and disinfected over a large area of their abdomens. […]
Each of the instrumented rats living in the system was assigned a separate receiving antenna (RPC-1 Receiver, DSI). […] The signals emitted were detected online by a data acquisition system (Dataquest™ A.R.T. for Windows, DSI) and processed accordingly.
In the standard procedure, the following were measured for 10-second periods in each case: (1) systolic blood pressure (SBP), (2) diastolic blood pressure (DBP), (3) mean arterial pressure (MAP) and (4) heart rate (HR) and (5) activity (ACT). These parameters were measured over 24 hours after administration.
The acquisition of measurements was repeated under computer control at 5-minute intervals. The source data obtained as absolute values were corrected in the diagram with the currently measured barometric pressure (Ambient Pressure Reference Monitor, APR-1, DSI). […]

[4] = test system: diabetic ZDF fa/fa animals; experiment: Measurement of blood flow and blood pressure in rats (femoral flow), ZDF rat; type: in vivo; settings: for Change in the femoral flow in %: ZDF rat (n = 3), steady state 32 min, mean
Method: as §1, §2, §3

[5] = during infusion, up to 1 μg/kg/min

Sequence of recombinant human α2C receptor (P18825 whole entry, the tested form may be a part): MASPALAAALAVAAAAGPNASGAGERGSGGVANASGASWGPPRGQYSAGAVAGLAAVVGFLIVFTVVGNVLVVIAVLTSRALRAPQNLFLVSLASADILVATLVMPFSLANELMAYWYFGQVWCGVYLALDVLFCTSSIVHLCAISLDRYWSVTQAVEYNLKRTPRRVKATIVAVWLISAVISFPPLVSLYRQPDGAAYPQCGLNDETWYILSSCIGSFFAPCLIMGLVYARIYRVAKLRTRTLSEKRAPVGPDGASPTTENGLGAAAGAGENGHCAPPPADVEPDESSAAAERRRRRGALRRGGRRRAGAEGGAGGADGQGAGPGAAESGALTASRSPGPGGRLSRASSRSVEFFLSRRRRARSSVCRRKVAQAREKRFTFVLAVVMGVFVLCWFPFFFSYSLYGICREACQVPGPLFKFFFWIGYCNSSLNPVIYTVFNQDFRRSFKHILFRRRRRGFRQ

In the case of `O=C(c1cnc(N2CC3(COC3)C2)nc1)N1CCC(N2CCc3ccccc3C2)CC1` [Example 8, [4-(3,4-Dihydroisoquinolin-2(1H)-yl)piperidin-1-yl][2-(2-oxa-6-azaspiro[3.3]hept-6-yl)pyrimidin-5-yl]methanone], the “Change in the femoral flow in %” value (Wistar rat; Wistar rat (n = 7), 1 μg/kg/min infusion, steady state 32 min, mean) is reported as −6.7 (n = 7) %, the “femoral flow (in words)” value (Wistar rat; Wistar rat, up to a dose of 1 μg/kg/min) is reported as “no increase in femoral flow” and the “blood pressure (in words)” value (Wistar rat; [5]) is reported as “no changes”. For the same compound, the “heart rate (in words)” value (Wistar rat; [5]) was “no changes”, the IC50 [1] was 23 nM and the “factor by which microcirculation is improved at the MED compared to placebo” value ([2]; single oral dose at MED, 30 min after administration) was 1.8 x. The MED microcirculation ([2]; single oral dose, measured 30 min after administration, significant vs placebo) was 0.03 mg/kg, the MED skin temperature ([2]; single oral dose, significant increase of skin temperature (ttest)) was 0.01 mg/kg and the heart rate ([3]; oral 3 and 10 mg/kg) was “slight transient increase in the heart rate”. For the same compound, the “haemodynamic effects (blood pressure, heart rate)” value ([3]; up to an oral dose of 1 mg/kg) was “no haemodynamic effects”, the “Change in the femoral flow in %” value ([4]; 0.1 μg/kg/min infusion) was 12.3% and the “Change in the femoral flow in %” value ([4]; 0.3 μg/kg/min infusion) was 65.0%. The “Change in the femoral flow in %” value ([4]; 1 μg/kg/min infusion) was 131.3% and the “femoral flow (in words)” value ([4]; diabetic ZDF fa/fa animals, doses of 0.1, 0.3 and 1 μg/kg) was “dose-dependent increase in femoral flow”.
